Test results as given in paper PMC12567268 (Pharmaceuticals, 2025).
Read-outs that look alike come from different tables or passages of the source.

How the values were obtained:
[1] = cited from earlier work
[2] = In vivo PK DDI study of TOF with or without RTV in rats (plasma LC-MS/MS, NCA); design: species or system Sprague–Dawley rats; conditions: for concentration at 12 h: oral, rat plasma, 12 h after TOF 10 mg/kg oral
Protocol: The rats were randomly divided into three groups (eight rats per group) after 1 week of acclimatization. Each rat was pretreated with RTV by oral gavage at different doses for four consecutive days (from Day 1 to Day 4) to ensure steady-state CYP3A inhibition, based on studies indicating rapid onset of inhibition. Group 1 (control group) received the vehicle (normal saline). Groups 2 and 3 served as test groups and received 10 and 20 mg/kg RTV once daily (QD), respectively. […] The collected samples were centrifuged at 10,000 rpm for 10 min at 4 °C to separate the plasma and stored at −80 °C until analysis.
Plasma samples were prepared by protein precipitation with acetonitrile containing domperidone as an internal standard (100 ng/mL). After vortex mixing and centrifugation at 15,000× g for 10 min at 4 °C, the supernatant was analyzed by LC-MS/MS with an injection volume of 5 μL. Chromatographic separation was achieved on a C18 reversed-phase column with a mobile phase of 0.1% formic acid in water and acetonitrile at a flow rate of 0.4 mL/min. Mass spectrometry was performed in positive ion mode with an electrospray ionization probe. […] Detailed instrument settings, sample preparation, calibration, and validation data are provided in Supplementary Material (Tables S1 and S2; Figure S1).

[3] = rats; cited from earlier work
[4] = humans; cited from earlier work
[5] = healthy human subjects, cited from earlier work
[6] = cited from earlier work; remark: listed apart in the source
[7] = healthy subjects, co-administration of RTV 400 mg twice daily; cited from earlier work
CYP3A4 = conditions: in vitro study; cited from earlier work
[8] = Sprague-Dawley, rat, plasma, po, 10 mg/kg, rats, TOF 10 mg/kg oral, Control (TOF only, vehicle), median [interquartile range]
[9] = rats, TOF 10 mg/kg oral, Control (TOF only, vehicle), median [interquartile range]
[10] = rats, TOF 10 mg/kg oral, RTV 10 mg/kg, median [interquartile range]

C=CC[C@@H]1/C=C(\C)C[C@H](C)C[C@H](OC)[C@H]2O[C@@](O)(C(=O)C(=O)N3CCCC[C@H]3C(=O)O[C@H](/C(C)=C/[C@@H]3CC[C@@H](O)[C@H](OC)C3)[C@H](C)[C@@H](O)CC1=O)[C@H](C)C[C@@H]2OC [Tacrolimus]
Change in exposure on co-administration with RTV ([1]; patients undergoing long-term tacrolimus treatment): increase to toxic levels within 3 days

C[C@@H]1CCN(C(=O)CC#N)C[C@@H]1N(C)c1ncnc2[nH]ccc12 [TOF, Tofacitinib]
concentration at 12 h ([2]; Sprague-Dawley, rat, plasma, RTV 10 mg/kg, read-out: Lowest plasma concentration at 12 h): 1.5 ng/mL | concentration at 12 h ([2]; Sprague-Dawley, rat, plasma, RTV 10 mg/kg, read-out: Mean plasma concentration at 12 h): 21.9 ng/mL | concentration at 12 h ([2]; Sprague-Dawley, rat, plasma, RTV 20 mg/kg, read-out: Lowest plasma concentration at 12 h): 2.6 ng/mL | concentration at 12 h ([2]; Sprague-Dawley, rat, plasma, RTV 20 mg/kg, read-out: Mean plasma concentration at 12 h): 12.1 ng/mL | AUC(0-inf) [2, 8]: 2720 ng·h/mL | half-life [2, 8]: 1.21 h | half-life ([2]; Sprague-Dawley, rat, plasma, po, 10 mg/kg, rats, TOF 10 mg/kg oral, RTV 10 mg/kg, median [interquartile range]): 1 h | Cmax ([2]; Sprague-Dawley, rat, plasma, po, 10 mg/kg, rats, TOF 10 mg/kg oral, RTV 10 mg/kg, median [interquartile range], read-out: Cmax): 2250 ng/mL | AUC(0-inf) ([2]; Sprague-Dawley, rat, plasma, po, 10 mg/kg, rats, TOF 10 mg/kg oral, RTV 20 mg/kg pretreatment and coadministration, median [interquartile range]): 16000 ng·h/mL | half-life ([2]; Sprague-Dawley, rat, plasma, po, 10 mg/kg, rats, TOF 10 mg/kg oral, RTV 20 mg/kg, median [interquartile range]): 0.87 h | Cmax ([2]; Sprague-Dawley, rat, plasma, po, 10 mg/kg, rats, TOF 10 mg/kg oral, RTV 20 mg/kg, median [interquartile range], read-out: Cmax): 3900 ng/mL | Tmax ([2]; Sprague-Dawley, rat, plasma, po, 10 mg/kg, read-out: Tmax): 1 h | CL [2, 9]: 3.57 [2.65–4.49] L/h/kg | Cmax [2, 9]: 1362 [1263–1410] ng/mL | Tmax [2, 9]: 0.25 [0.25–0.5] h | CL [2, 10]: 1.65 [1.19–2.11] L/h/kg | Tmax [2, 10]: 0.5 [0.44–1.0] h | CL ([2]; rats, TOF 10 mg/kg oral, RTV 20 mg/kg, median [interquartile range]): 0.66 [0.60- 0.73] L/h/kg | Change of half-life (t1/2) with RTV ([2]; rats, TOF 10 mg/kg oral, RTV 10 and 20 mg/kg vs Control, p = 0.08): remained unchanged | Bioavailability (BA) [3]: 29.1% | Hepatic clearance as share of total clearance [4]: 70% | Renal clearance as share of total clearance [4]: 30% | Increase in AUC of TOF ([5]; co-administration of fluconazole): 79% | Increase in AUC of TOF ([5]; co-administration of ketoconazole): 103% | Increase in AUC of TOF ([6]; rats pretreated with fluconazole (inhibitor of CYP2C11)): 39% | Increase in AUC of TOF ([6]; rats pretreated with ketoconazole (inhibitor of CYP3A1/2)): 46% | Increase in AUC of TOF ([6]; rats, with voriconazole (inhibits CYP3A1/2 and CYP2C11)): 166%

C[C@@H](c1ncncc1F)[C@](O)(Cn1cncn1)c1ccc(F)cc1F [voriconazole]
Decrease in steady-state AUC [7]: 82%

CC(=O)N1CCN(c2ccc(OCC3COC(Cn4ccnc4)(c4ccc(Cl)cc4Cl)O3)cc2)CC1 (stereo not shown) [ketoconazole]
Inhibition of the overall metabolism of TOF (CYP3A4): over 70%

COc1ccc2c3c1O[C@H]1C(=O)CC[C@@]4(O)[C@@H](C2)N(C)CC[C@]314 [oxycodone]
Change in exposure in the presence of RTV ([1]; in the presence of RTV): tripled
